Source: ChEMBL document CHEMBL1133902, “Biflavonoids as novel antituberculosis agents” (2001)
Converted amounts (≈) assume the structure as drawn.

Columns and labels:
[1] = test system: Mycobacterium tuberculosis; experiment: Antituberculosis activity against Mycobacterium tuberculosis at a concentration of 12.5 ug/mL; type: functional
[2] = test system: Mycobacterium tuberculosis; experiment: Minimum inhibitory concentration against Mycobacterium tuberculosis; type: functional

## O=c1cc(-c2ccc(Oc3c(-c4cccc([N+](=O)[O-])c4)oc4ccccc4c3=O)cc2)oc2ccccc12
[1]
  inhibition at 12.5 µg/mL: 61%

## COc1ccc(-c2cc(=O)c3c(OC)cc(OC)c(C4C(=O)c5c(OC)cc(OC)cc5OC4c4ccc(OC)cc4)c3o2)cc1 (centres undefined)
[1]
  inhibition at 12.5 µg/mL: 95%
[2]
  MIC: 12.5 µg/mL (≈ 20 µM)

## O=C1CC(c2ccc(O)cc2)Oc2cc(O)c(-c3c(O)cc(O)c4c3OC(c3ccc(O)cc3)CC4=O)c(O)c21 (centres undefined)
[1]
  inhibition at 12.5 µg/mL: 0%

## COc1ccc(-c2cc(=O)c3c(OC)c(-c4cc(OC)ccc4-c4cc(=O)c5c(OC)cc(OC)cc5o4)c(OC)cc3o2)cc1
[1]
  inhibition at 12.5 µg/mL: 1%

## O=c1cc(-c2cccc(-c3cccc4c(=O)cc(-c5ccccc5)oc34)c2)oc2ccccc12
[1]
  inhibition at 12.5 µg/mL: 49%

## COc1ccc2c(c1)OC(c1ccccc1)C(C1C(=O)c3ccc(OC)cc3OC1c1ccccc1)C2=O (centres undefined)
[1]
  inhibition at 12.5 µg/mL: 0%

## CC(=O)Oc1ccc(C2CC(=O)c3c(cc(OC(C)=O)c(-c4c(OC(C)=O)cc(OC(C)=O)c5c4OC(c4ccc(OC(C)=O)cc4)CC5=O)c3OC(C)=O)O2)cc1 (centres undefined)
[1]
  inhibition at 12.5 µg/mL: 0%

## O=C1c2c(O)cc(O)cc2OC(c2ccc(O)cc2)C1c1c(O)cc(O)c2c(=O)cc(-c3ccc(O)c(O)c3)oc12 (centres undefined)
[1]
  inhibition at 12.5 µg/mL: 0%

## COc1ccc(C2CC(=O)c3c(OC)cc(OC)c(C4C(=O)c5c(OC)cc(OC)cc5OC4c4ccc(OC)cc4)c3O2)cc1 (centres undefined)
[1]
  inhibition at 12.5 µg/mL: 87%
[2]
  MIC: > 12.5 µg/mL

## COc1ccc(C2CC(=O)c3c(cc(OC)c(-c4c(OC)cc5c(c4OC)C(=O)CC(c4ccc(OC)cc4)O5)c3OC)O2)cc1 (centres undefined)
[1]
  inhibition at 12.5 µg/mL: 2%

## O=C1CC(c2ccc(O)c(O)c2)Oc2c1c(O)cc(O)c2C1C(=O)c2c(O)cc(O)cc2OC1c1ccc(O)cc1 (centres undefined)
[1]
  inhibition at 12.5 µg/mL: 0%

## O=c1cc(-c2ccccc2)oc2ccc(-c3ccccc3-c3cc(=O)c4ccccc4o3)cc12
[1]
  inhibition at 12.5 µg/mL: 9%

## CC(=O)Oc1ccc(C2Oc3cc(OC(C)=O)cc(OC(C)=O)c3C(=O)C2c2c(OC(C)=O)cc(OC(C)=O)c3c2OC(c2ccc(OC(C)=O)c(OC(C)=O)c2)CC3=O)cc1 (centres undefined)
[1]
  inhibition at 12.5 µg/mL: 0%

## COc1ccc(-c2cc(=O)c3c(OC)c(-c4c(OC)cc5oc(-c6ccc(OC)cc6)cc(=O)c5c4OC)c(OC)cc3o2)cc1
[1]
  inhibition at 12.5 µg/mL: 96%
[2]
  MIC: > 12.5 µg/mL

## O=C1CC(c2ccc(O)cc2)Oc2cc(O)c(-c3c(O)cc4c(c3O)C(=O)CC(c3ccc(O)cc3)O4)c(O)c21 (centres undefined)
[1]
  inhibition at 12.5 µg/mL: 0%

## O=c1cc(-c2cccc(-c3ccc4c(=O)cc(-c5ccccc5)oc4c3)c2)oc2ccccc12
[1]
  inhibition at 12.5 µg/mL: 0%

## COc1ccc(-c2oc3cc(OC)cc(OC)c3c(=O)c2-c2c(-c3ccc(OC)cc3)oc3cc(OC)cc(OC)c3c2=O)cc1
[1]
  inhibition at 12.5 µg/mL: 0%

## O=c1cc(-c2ccccc2-c2cccc3c(=O)cc(-c4ccccc4)oc23)oc2ccccc12
[1]
  inhibition at 12.5 µg/mL: 0%

## CC(=O)Oc1ccc(C2CC(=O)c3c(cc(OC(C)=O)c(-c4c(OC(C)=O)cc5c(c4OC(C)=O)C(=O)CC(c4ccc(OC(C)=O)cc4)O5)c3OC(C)=O)O2)cc1 (centres undefined)
[1]
  inhibition at 12.5 µg/mL: 0%

## O=C1CC(c2ccc(O)c(O)c2)Oc2c1c(O)cc(O[C@]1(O)O[C@H](CO)[C@@H](O)C(O)[C@H]1O)c2C1C(=O)c2c(O)cc(O)cc2OC1c1ccc(O)cc1 (single isomer, unassigned)
[1]
  inhibition at 12.5 µg/mL: 0%

## O=C1CC(c2ccc(O)cc2)Oc2c1c(O)cc(O[C@]1(O)O[C@H](CO)[C@@H](O)C(O)[C@H]1O)c2C1C(=O)c2c(O)cc(O)cc2OC1c1ccc(O)cc1 (single isomer, unassigned)
[1]
  inhibition at 12.5 µg/mL: 0%

## O=C1c2c(O)cc(O)cc2OC(c2ccc(O)cc2)C1c1c(O[C@]2(O)O[C@H](CO)[C@@H](O)C(O)[C@H]2O)cc(O)c2c(=O)cc(-c3ccc(O)cc3)oc12 (single isomer, unassigned)
[1]
  inhibition at 12.5 µg/mL: 0%

## CC(=O)OC[C@H]1O[C@@](O)(Oc2cc(OC(C)=O)c3c(c2C2C(=O)c4c(OC(C)=O)cc(OC(C)=O)cc4OC2c2ccc(OC(C)=O)cc2)OC(c2ccc(OC(C)=O)cc2)CC3=O)[C@H](O)C(O)[C@@H]1O (single isomer, unassigned)
[1]
  inhibition at 12.5 µg/mL: 0%

## O=c1cc(-c2ccc(O)c(-c3c(O)cc(O)c4c(=O)cc(-c5ccc(O)cc5)oc34)c2)oc2cc(O)cc(O)c12 [AMENTOFLAVONE]
[1]
  inhibition at 12.5 µg/mL: 0%

## O=c1cc(-c2ccc(Oc3c(O)cc4oc(-c5ccc(O)cc5)cc(=O)c4c3O)cc2)oc2cc(O)cc(O)c12 [HINOKIFLAVONE]
[1]
  inhibition at 12.5 µg/mL: 0%

## O=c1cc(-c2ccc(O)c(-c3c(O)cc4oc(-c5ccc(O)cc5)cc(=O)c4c3O)c2)oc2cc(O)cc(O)c12 [ROBUSTAFLAVONE]
[1]
  inhibition at 12.5 µg/mL: 0%
